Results published in patent US20230130766A1 (SALK INSTITUTE FOR BIOLOGICAL STUDIES, priority 2020, published 2023).

target: T1, ULK1 (Homo sapiens, UniProt O75385); assay: ULK1 inhibition assay; format: biochemical; settings: * = tested as a mixture of regioisomers
T1 sequence (O75385 1-1050): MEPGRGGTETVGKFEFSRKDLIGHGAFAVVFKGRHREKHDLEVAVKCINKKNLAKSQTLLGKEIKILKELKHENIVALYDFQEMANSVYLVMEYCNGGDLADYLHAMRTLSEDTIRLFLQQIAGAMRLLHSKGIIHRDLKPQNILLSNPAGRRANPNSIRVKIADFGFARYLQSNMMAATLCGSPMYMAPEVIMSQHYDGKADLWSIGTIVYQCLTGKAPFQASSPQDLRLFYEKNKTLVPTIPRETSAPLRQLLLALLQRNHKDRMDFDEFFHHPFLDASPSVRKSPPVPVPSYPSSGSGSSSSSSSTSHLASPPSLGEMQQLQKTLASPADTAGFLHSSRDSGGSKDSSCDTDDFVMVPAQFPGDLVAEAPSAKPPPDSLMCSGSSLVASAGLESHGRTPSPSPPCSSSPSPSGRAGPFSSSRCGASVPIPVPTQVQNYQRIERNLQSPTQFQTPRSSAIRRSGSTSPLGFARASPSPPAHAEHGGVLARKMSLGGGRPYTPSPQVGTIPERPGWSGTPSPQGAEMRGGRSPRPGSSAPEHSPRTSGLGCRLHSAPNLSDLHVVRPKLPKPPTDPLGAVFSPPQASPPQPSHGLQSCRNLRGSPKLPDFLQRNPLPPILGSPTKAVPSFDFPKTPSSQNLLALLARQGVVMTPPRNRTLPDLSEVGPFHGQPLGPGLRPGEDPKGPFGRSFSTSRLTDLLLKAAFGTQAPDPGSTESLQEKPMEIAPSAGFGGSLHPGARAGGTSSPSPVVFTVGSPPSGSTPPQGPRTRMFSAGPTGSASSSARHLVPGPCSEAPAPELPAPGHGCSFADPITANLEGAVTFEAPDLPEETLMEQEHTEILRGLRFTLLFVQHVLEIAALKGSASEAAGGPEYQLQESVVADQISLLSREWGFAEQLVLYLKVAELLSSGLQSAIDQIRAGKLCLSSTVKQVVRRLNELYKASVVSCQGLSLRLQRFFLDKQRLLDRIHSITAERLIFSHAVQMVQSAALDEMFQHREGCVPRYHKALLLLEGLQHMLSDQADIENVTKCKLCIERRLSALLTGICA

SMILES | IC50 [nM]
CNC(=O)c1ccccc1Oc1nc(Nc2cc(OC)ccc2OC)ncc1C(F)(F)F [Compound 109a] | > 2000
COc1ccc(OC)c(Nc2ncc(C(F)(F)F)c(O)n2)c1 [Compound 109b] | > 2000
CNC(=O)c1ccccc1Oc1nc(Nc2ccccc2)ncc1Br [Compound 111] | > 2000
CNC(=O)c1ccccc1Oc1nc(Nc2cc(Br)ccc2C)ncc1Br [Compound 112] | > 2000
CNC(=O)c1ccccc1Oc1nc(Nc2cccc(F)c2F)ncc1C(F)(F)F [Compound 113] | > 2000
Clc1cnc(Nc2ccccc2)nc1Nc1ccccc1 [Compound 114] | > 2000
CNC(=O)c1ccccc1Oc1nc(Nc2cccc(OC)c2OC)ncc1C(F)(F)F [Compound 115a] | > 2000
COc1cccc(Nc2ncc(C(F)(F)F)c(O)n2)c1OC [Compound 115b] | > 2000
CNC(=O)c1ccccc1Oc1nc(Nc2ccccc2SC)ncc1C(F)(F)F [Compound 116a] | > 2000
CSc1ccccc1Nc1ncc(C(F)(F)F)c(Nc2ccccc2SC)n1 [Compound 116b] | > 2000
CNC(=O)c1ccccc1Sc1nc(Nc2cc(OC)ccc2C)ncc1C(F)(F)F [Compound 117] | > 2000
O=C1CCc2cc(Nc3ncc(C(F)(F)F)c(Nc4ccccc4N4CCOCC4)n3)ccc2N1 [Compound 118a] | < 200
O=C1CCc2cc(Nc3nc(Nc4ccccc4N4CCOCC4)ncc3C(F)(F)F)ccc2N1 [Compound 118b] | > 2000
Oc1ncc(C(F)(F)F)c(Nc2ccccc2N2CCOCC2)n1 [Compound 118c] | > 2000
COc1cccc(Nc2nc(Nc3ccc4c(c3)CCC(=O)N4)ncc2C(F)(F)F)c1 [Compound 119] | < 200
O=C1CCc2cc(Nc3ncc(C(F)(F)F)c(Nc4ccccc4OC(F)F)n3)ccc2N1 [Compound 120a] | < 200
O=C1CCc2cc(Nc3ncc(C(F)(F)F)c(Nc4ccc5c(c4)CCC(=O)N5)n3)ccc2N1 [Compound 120c] | < 200
COc1cc(N2CCOCC2)ccc1Nc1nc(Nc2ccc3c(c2)CCC(=O)N3)ncc1C(F)(F)F [Compound 123a] | < 200
COc1cc(N2CCOCC2)ccc1Nc1ncc(C(F)(F)F)c(Nc2ccc3c(c2)CCC(=O)N3)n1 [Compound 123b] | < 200
FC(F)(F)c1cnc(Nc2ccc3c(c2)OCO3)nc1Nc1ccc2c(c1)OCO2 [Compound 124c] | < 200
Cc1ccc(Nc2nc(Nc3ccc4c(c3)CCC(=O)N4)ncc2C(F)(F)F)cc1C [Compound 125] | < 200
CNC(=O)c1cccc(Nc2nc(Nc3ccc4c(c3)CCC(=O)N4)ncc2C(F)(F)F)c1 [Compound 128] | < 200
O=C1CCc2cc(Nc3ncc(C(F)(F)F)c(Nc4ccc5c(c4)CCC5)n3)ccc2N1 [Compound 129] | < 200
O=C1CCc2cc(Nc3ncc(C(F)(F)F)c(NC4Cc5ccccc5C4)n3)ccc2N1 [Compound 130a] | < 200
O=C1CCc2cc(Nc3nc(NC4Cc5ccccc5C4)ncc3C(F)(F)F)ccc2N1 [Compound 130b] | > 2000
O=C1CCc2cc(Nc3ncc(C(F)(F)F)c(NC4CC4)n3)ccc2N1 [Compound 131a] | < 200
O=C1CCc2cc(Nc3nc(NC4CC4)ncc3C(F)(F)F)ccc2N1 [Compound 131b] | < 200
CC(=O)Nc1ccc(Nc2nc(Nc3ccc4c(c3)CCC(=O)N4)ncc2C(F)(F)F)cc1 [Compound 132] | < 200

SMILES | IC50 [nM]
COc1cccc(Nc2nc(Nc3ccc4c(c3)OCCO4)ncc2C(F)(F)F)c1 [Compound 133] | < 200
O=C1CCc2cc(Nc3ncc(Cl)c(Nc4ccc5c(c4)CCC(=O)N5)n3)ccc2N1 [Compound 134] | < 200
COc1cnc(Nc2ccc3c(c2)CCC(=O)N3)nc1Nc1ccc2c(c1)CCC(=O)N2 [Compound 135] | > 2000
Fc1c(Nc2ncc(C(F)(F)F)c(Nc3ccc4c(c3)OCO4)n2)cccc1C(F)(F)F [Compound 141a] | > 2000
Fc1c(Nc2nc(Nc3ccc4c(c3)OCO4)ncc2C(F)(F)F)cccc1C(F)(F)F [Compound 141b] | < 200
COc1cccc(Nc2nc(Nc3ccc4c(c3)CCC(=O)N4)ncc2Br)c1 [Compound 142] | < 200
COc1cccc(Nc2nc(Nc3ccc4c(c3)CCC(=O)N4)ncc2Cl)c1 [Compound 143a] | < 200
COc1cccc(Nc2ncc(Cl)c(Nc3cccc(OC)c3)n2)c1 [Compound 143b] | < 200
O=C1CCc2cc(Nc3ncc(C(F)(F)F)c(NC4CCC4)n3)ccc2N1 [Compound 150a] | < 200
O=C1CCc2cc(Nc3nc(NC4CCC4)ncc3C(F)(F)F)ccc2N1 [Compound 150b] | < 200
COCCNc1nc(Nc2ccc3c(c2)CCC(=O)N3)ncc1C(F)(F)F [Compound 151a] | < 200
COCCNc1ncc(C(F)(F)F)c(Nc2ccc3c(c2)CCC(=O)N3)n1 [Compound 151b] | < 200
FC(F)(F)c1cnc(Nc2cnc3[nH]ccc3c2)nc1NC1CC1 [Compound 152a] | < 200
CS(=O)(=O)c1cccc(CNc2nc(Nc3ccc4[nH]ccc4c3)ncc2Br)c1 [Compound 153] | > 2000
Brc1cnc(Nc2ccc3[nH]ccc3c2)nc1Nc1ccccn1 [Compound 154] | < 200
O=C1CCc2cc(Nc3ncc(Br)c(Nc4ccccn4)n3)ccc2N1 [Compound 155] | < 200
COc1ccc(Nc2nc(Nc3ccc4c(c3)CCC(=O)N4)ncc2Br)cn1 [Compound 156] | < 200
FC(F)(F)c1cnc(Nc2ccc3c(c2)OCCO3)nc1NC1CC1 [Compound 158a] | < 200
FC(F)(F)c1cnc(NC2CC2)nc1Nc1ccc2c(c1)OCCO2 [Compound 158b] | < 200
O=C1CCc2cc(Nc3ncc(Br)c(NC4CC4)n3)ccc2N1 [Compound 159] | < 200
FC(F)(F)c1cnc(NC2CC2)nc1NC1CC1 [Compound 169] | > 2000
CNC(=O)c1ccccc1Oc1nc(Nc2cc(OC)ccc2C)ncc1Br [Compound 170] | > 2000
CCCCOc1nc(Nc2cc(OC)c(OC)c(OC)c2)ncc1Br [Compound 173] | < 200
Brc1cnc(Nc2cnc3[nH]ccc3c2)nc1NC1CC1 [Compound 174] | < 200
O=C1CCc2cc(Nc3ncc(C(F)(F)F)c(OC4CCC4)n3)ccc2N1 [Compound 175] | < 200
FC(F)(F)c1cnc(Nc2cnc3[nH]ccc3c2)nc1Nc1ccc2c(c1)OCO2 [Compound 177] | < 200
CC1CN1c1nc(Nc2ccc3c(c2)CCC(=O)N3)ncc1C(F)(F)F (stereo not shown) [Compound 183a] | > 2000

The remaining lines, values ahead:

IC50 [nM] | SMILES
< 200 | O=C1CCc2cc(Nc3ncc(C(F)(F)F)c(NC4CCCC4)n3)ccc2N1 [Compound 160a]
< 200 | FC(F)(F)c1cnc(Nc2cnc3[nH]ccc3c2)nc1NC1CCC1 [Compound 161a]
< 200 | FC(F)(F)c1cnc(NC2CCC2)nc1Nc1cnc2[nH]ccc2c1 [Compound 161b]
> 2000 | FC(F)(F)c1cnc(NC2Cc3ccccc3C2)nc1Nc1ccc2c(c1)OCO2 [Compound 163a]
> 2000 | FC(F)(F)c1cnc(Nc2ccc3c(c2)OCO3)nc1NC1Cc2ccccc2C1 [Compound 163b]
> 2000 | FC(F)(F)c1cnc(N2CCCC2)nc1Nc1ccc2c(c1)OCO2 [Compound 164a]
> 2000 | FC(F)(F)c1cnc(N2CCC2)nc1Nc1ccc2c(c1)OCO2 [Compound 166a]
< 200 | FC(F)(F)c1cnc(Nc2ccc3c(c2)OCO3)nc1N1CCC1 [Compound 166b]
< 200 | FC(F)(F)c1cnc(NCC2CC2)nc1Nc1ccc2c(c1)OCO2 [Compound 167a]
< 200 | FC(F)(F)c1cnc(Nc2ccc3c(c2)OCO3)nc1NCC1CC1 [Compound 167b]
< 200 | FC(F)(F)c1cnc(NC2CCC2)nc1Nc1ccc2c(c1)OCO2 [Compound 168a]
< 200 | COc1cc(Nc2ncc(Br)c(N(C)C(=O)c3ccccc3O)n2)cc(OC)c1OC [Compound 171b]
< 200 | O=C1CCc2cc(Nc3ncc(C(F)(F)F)c(Nc4ccc5c(c4)OC(F)(F)O5)n3)ccc2N1 [Compound 178a]
< 200 | O=C1CCc2cc(Nc3nc(Nc4ccc5c(c4)OC(F)(F)O5)ncc3C(F)(F)F)ccc2N1 [Compound 178b]
< 200 | O=C1CCc2cc(Nc3ncc(C(F)(F)F)c(OC4Cc5ccccc5C4)n3)ccc2N1 [Compound 180a]
> 2000 | O=C1CCc2cc(Nc3nc(OC4Cc5ccccc5C4)ncc3C(F)(F)F)ccc2N1 [Compound 180b]
< 200 | FC(F)(F)c1cnc(Nc2cnc3[nH]ccc3c2)nc1Nc1ccccc1 [Compound 181a]
< 200 | CNc1nc(Nc2cnc3[nH]ccc3c2)ncc1C(F)(F)F [Compound 182a]
